Experimental data reported in US20210068388A1, “A MULTIPURPOSE POTENTIATOR COMPOSITION AND THE METHODS THEREOF” (priority 2017, published 2021).
Like-named read-outs stand apart in the source and are kept apart here.

Key:
[1] = test system: African green monkey kidney cells (Vero cells)
Experimental: (§1) In-vitro cytotoxicity of the composition of was carried out on African green monkey kidney cells (Vero cells).

[2] = test system: African green monkey kidney cells (Vero cells); test: In-vitro cytotoxicity on Vero cells
Experimental: as §1

Row | Structure (SMILES) | Non-toxic level (%) [1] [%] | toxic level [1] [%] | toxic level [2] [%] | Non-toxic level (%) ([2]; up to total amount of the composition)
1 | [Na+].[OH-] [Control-II, Sodium hydroxide] | 0.06 | 0.06 |  | 
2 | [Cl-].[Na+] [Control-I, Sodium chloride] |  |  | 0.50 | 0.50
